Measurements as given in patent publication US4521335A, “Aglycone and pseudo-aglycones of the AAD 216 antibiotics” (SmithKline Beckman Corporation, priority 1984, dated 1985).
Converted amounts (≈) assume the structure as drawn.

Columns and labels:
Staph. aureus HH127 = assay: MIC, standard microtiter assay; assay type: cell-based
[1] = test system: E. coli 12140 (SK & F 809); assay: MIC, standard microtiter assay; assay type: cell-based; conditions: Escherichia coli
[2] = test system: Serratia marcesens ATCC 13880; assay: MIC, standard microtiter assay; assay type: cell-based; conditions: ATCC13880
Providencia SK & F 276 = assay: MIC, standard microtiter assay; assay type: cell-based
[3] = test system: Salmonella gallinarum SK & F BC595; assay: microbe, parasite or virus in culture; assay type: cell-based; conditions: Salmonella enterica
[4] = test system: Staph. epidermidis SK & F 2479; assay: MIC, standard microtiter assay; assay type: cell-based; conditions: Staphylococcus epidermidis
[5] = test system: Listeria monocytogenes SK & F 2255; assay: MIC, standard microtiter assay; assay type: cell-based
[6] = test system: Staph. epidermidis SK & F 651; assay: MIC, standard microtiter assay; assay type: cell-based; conditions: Staphylococcus epidermidis
Staph. aureus SK & F 674 = assay: MIC, standard microtiter assay; assay type: cell-based; conditions: Staphylococcus aureus
[7] = test system: Staph. aureus SK & F 2678; assay: MIC, standard microtiter assay; assay type: cell-based; conditions: Staphylococcus aureus
[8] = test system: Staph. aureus SK & F 2680; assay: MIC, standard microtiter assay; assay type: cell-based; conditions: Staphylococcus aureus
[9] = test system: Staph. aureus SK & F 2682; assay: MIC, standard microtiter assay; assay type: cell-based; conditions: Staphylococcus aureus
[10] = test system: Staph. aureus SK & F 2736; assay: MIC, standard microtiter assay; assay type: cell-based; conditions: Staphylococcus aureus
[11] = test system: Staph. aureus SK & F 2777; assay: MIC, standard microtiter assay; assay type: cell-based; conditions: Staphylococcus aureus
[12] = test system: Staph. aureus SK & F 2613; assay: MIC, standard microtiter assay; assay type: cell-based; conditions: Staphylococcus aureus
[13] = test system: Staph. aureus SK & F 2615; assay: MIC, standard microtiter assay; assay type: cell-based; conditions: Staphylococcus aureus
Staph. aureus SK & F 675 = assay: MIC, standard microtiter assay; assay type: cell-based; conditions: Staphylococcus aureus
[14] = test system: Staph. aureus SK & F 2612; assay: MIC, standard microtiter assay; assay type: cell-based; conditions: Staphylococcus aureus
[15] = test system: Staph. aureus SK & F 2614; assay: MIC, standard microtiter assay; assay type: cell-based; conditions: Staphylococcus aureus
[16] = test system: Staph. aureus SK & F 2620; assay: MIC, standard microtiter assay; assay type: cell-based; conditions: Staphylococcus aureus
[17] = test system: Staph. aureus SK & F 2594; assay: MIC, standard microtiter assay; assay type: cell-based; conditions: Staphylococcus aureus
[18] = test system: Staph. aureus SK & F 2589; assay: MIC, standard microtiter assay; assay type: cell-based; conditions: Staphylococcus aureus
[19] = test system: Staph. aureus SK & F 2593; assay: MIC, standard microtiter assay; assay type: cell-based; conditions: Staphylococcus aureus
[20] = test system: Staph. aureus SK & F 2596; assay: MIC, standard microtiter assay; assay type: cell-based; conditions: Staphylococcus aureus
[21] = test system: Bacteroides fragilis ATCC 25285; assay: MIC, standard microtiter assay; assay type: cell-based; conditions: ATCC25285
B. fragilis H145 = assay: MIC, standard microtiter assay; assay type: cell-based; conditions: Bacteroides fragilis
B. fragilis SK & F 3060 = assay: MIC, standard microtiter assay; assay type: cell-based; conditions: Bacteroides fragilis
[22] = test system: Fusobacterium nucleatum ATCC 25586; assay: MIC, standard microtiter assay; assay type: cell-based
C. perfringens MCP-2 = assay: microbe, parasite or virus in culture; assay type: cell-based; conditions: Clostridium perfringens
[23] = test system: Clostridium difficile SK & F 3062; assay: MIC, standard microtiter assay; assay type: cell-based; conditions: Clostridioides difficile
C. difficile SK & F 3091 = assay: MIC, standard microtiter assay; assay type: cell-based; conditions: Clostridioides difficile
C. difficile SK & F 3096 = assay: MIC, standard microtiter assay; assay type: cell-based; conditions: Clostridioides difficile
[24] = test system: Staph. aureus SK & F 209P; assay: MIC, standard microtiter assay; assay type: cell-based; conditions: Staphylococcus aureus
[25] = test system: Strep. faecalis SK & F 657; assay: MIC, standard microtiter assay; assay type: cell-based; conditions: Enterococcus faecalis
E. coli SK & F 12140 = assay: MIC, standard microtiter assay; assay type: cell-based; conditions: Escherichia coli
[26] = test system: Salmonella gallinarum BC-595; assay: microbe, parasite or virus in culture; assay type: cell-based; conditions: Salmonella enterica
[27] = test system: Bacteroides Fragilis ATCC; assay: MIC, standard microtiter assay; assay type: cell-based
Staph. aureus HH 127 = assay: in vivo activity against intraperitoneal infections in mice; parameters: species or system mice infected with Staph. aureus; conditions: Staphylococcus aureus, HH127, sc
[28] = test system: inoculum (rumen cannula filtrate); assay: rumen in vitro model, growth promotant activity; conditions: experiment III; for GLU (% Control): glucose; for LYS (% Control): lysine; for Propionate % (% Control): propionate as percentage of total VFA; for VFA (% Control): total volatile fatty acids

## CN[C@H](CC(C)C)C(=O)N[C@H]1C(=O)N[C@@H](CC(N)=O)C(=O)N[C@H]2C(=O)N[C@H]3C(=O)N[C@H](C(=O)N[C@H](C(=O)O)c4cc(O)cc(O)c4-c4cc3ccc4O)[C@H](O)c3ccc(c(Cl)c3)Oc3cc2cc(c3O[C@@H]2O[C@H](CO)[C@@H](O)[C@H](O)[C@H]2O[C@H]2C[C@](C)(N)[C@H](O)[C@H](C)O2)Oc2ccc(cc2Cl)[C@H]1O [Vancomycin, vancomycin]
Staph. aureus HH127; Staphylococcus aureus, HH127
  MIC: 1.6 µg/mL (≈ 1.1 µM)
Staph. aureus HH127; Table A, Staph. aureus HH127
  MIC: 1.6 µg/mL (≈ 1.1 µM)
Staph. aureus HH127; Table E, Staph. aureus HH127
  MIC: 1.6 µg/mL (≈ 1.1 µM)
[1]
  MIC: 100 µg/mL (≈ 69 µM)
[2]
  MIC: > 100 µg/mL
Providencia SK & F 276
  MIC: > 100 µg/mL
[3]
  MIC: 25 µg/mL (≈ 17.3 µM)
[4]; Table A
  MIC: 1.6 µg/mL (≈ 1.1 µM)
[4]; Table E
  MIC: 3.1 µg/mL (≈ 2.14 µM)
[5]; Table A
  MIC: 1.6 µg/mL (≈ 1.1 µM)
[5]; Table E
  MIC: 0.8 µg/mL (≈ 0.552 µM)
[6]; Table A, Staph. epidermidis SK & F 651
  MIC: 1.6 µg/mL (≈ 1.1 µM)
[6]; Table E, Staph. epidermidis SK & F 651, first entry
  MIC: 3.1 µg/mL (≈ 2.14 µM)
[6]; Table E, Staph. epidermidis SK & F 651, second entry
  MIC: 3.1 µg/mL (≈ 2.14 µM)
Staph. aureus SK & F 674
  MIC: 1.6 µg/mL (≈ 1.1 µM)
[7]
  MIC: 1.6 µg/mL (≈ 1.1 µM)
[8]
  MIC: 1.6 µg/mL (≈ 1.1 µM)
[9]
  MIC: 1.6 µg/mL (≈ 1.1 µM)
[10]
  MIC: 1.6 µg/mL (≈ 1.1 µM)
[11]
  MIC: 0.8 µg/mL (≈ 0.552 µM)
[12]
  MIC: 1.6 µg/mL (≈ 1.1 µM)
[13]
  MIC: 3.1 µg/mL (≈ 2.14 µM)
Staph. aureus SK & F 675; Table C, Methicillin Resistant
  MIC: 1.6 µg/mL (≈ 1.1 µM)
Staph. aureus SK & F 675; Table E
  MIC: 3.1 µg/mL (≈ 2.14 µM)
[14]
  MIC: 1.6 µg/mL (≈ 1.1 µM)
[15]
  MIC: 1.6 µg/mL (≈ 1.1 µM)
[16]
  MIC: 3.1 µg/mL (≈ 2.14 µM)
[17]
  MIC: 1.6 µg/mL (≈ 1.1 µM)
[18]
  MIC: 1.6 µg/mL (≈ 1.1 µM)
[19]
  MIC: 1.6 µg/mL (≈ 1.1 µM)
[20]
  MIC: 3.1 µg/mL (≈ 2.14 µM)
[21]
  MIC: 32 µg/mL (≈ 22.1 µM)
B. fragilis H145
  MIC: 32 µg/mL (≈ 22.1 µM)
B. fragilis SK & F 3060
  MIC: 32 µg/mL (≈ 22.1 µM)
[22]; Fusobacterium nucleatum, ATCC25586
  MIC: 32 µg/mL (≈ 22.1 µM)
[22]; Table F, Fusobacterium nucleatum ATCC 25586
  MIC: 32 µg/mL (≈ 22.1 µM)
C. perfringens MCP-2; MCP2, Table D, Anaerobes
  MIC: 0.5 µg/mL (≈ 0.345 µM)
C. perfringens MCP-2; MCP2, Table F
  MIC: 2 µg/mL (≈ 1.38 µM)
[23]; Table D, Anaerobes, Clostridium difficile SK & F 3062
  MIC: 2 µg/mL (≈ 1.38 µM)
[23]; Table F, C. difficile SK & F 3062
  MIC: 0.5 µg/mL (≈ 0.345 µM)
C. difficile SK & F 3091
  MIC: 2 µg/mL (≈ 1.38 µM)
C. difficile SK & F 3096
  MIC: 2 µg/mL (≈ 1.38 µM)
[24]
  MIC: 1.6 µg/mL (≈ 1.1 µM)
[25]
  MIC: 3.1 µg/mL (≈ 2.14 µM)
E. coli SK & F 12140
  MIC: > 100 µg/mL
[26]
  MIC: > 100 µg/mL
[27]
  MIC: > 32 µg/mL
Staph. aureus HH 127; i.p. infection 46.8 LD50's Staph. aureus HH 127, s.c. 1 and 5 hours post infection
  ED50: 1.56 mg/kg
Staph. aureus HH 127; second test, similar protocol, s.c.
  ED50: 1.92 mg/kg
[28]; 0.5 ppm
  GLU (% Control): 17 % Control
  LYS (% Control): 83 % Control
  Propionate % (% Control): 105 % Control
  VFA (% Control): 97 % Control
[28]; 5.0 ppm
  GLU (% Control): 165 % Control
  LYS (% Control): 85 % Control
  Propionate % (% Control): 130 % Control
  VFA (% Control): 108 % Control
[28]; 50.0 ppm
  GLU (% Control): 189 % Control
  LYS (% Control): 97 % Control
  Propionate % (% Control): 127 % Control
  VFA (% Control): 107 % Control
